Measured values as given in patent US8192717B2, “Composition for diagnosing amyloid-related diseases” (Nagasaki University, priority 2004, dated 2012).

Assay: Radioactivity distribution in mouse body after intravenous administration of radioiodine labeled forms
Conditions: mouse, intravenous administration, mean (SD) of 3 to 5 mice
Method: Thereafter, 100 μl (0.5 to 1 μCi) of each labeled form was intravenously administered to each group consisting of three to five 5-week-old ddY male mice (25 to 30 g). 2, 10, 30, and 60 minutes after the intravenous administration, such mice were decapitated, and blood was collected. Thereafter, organs were excised, and the weight and radioactivity thereof were then measured.

Question: Which results are given for `COc1cc(/C=C/C(=O)c2cccc([125I])c2)ccc1O` [[125I]Compound 31]?
Answer: Distribution of radioactivity, Blood (2 min after administration): 4.90 (0.52) % ID/g; Distribution of radioactivity, Blood (10 min after administration): 3.80 (0.91) % ID/g; Distribution of radioactivity, Blood (30 min after administration): 1.84 (0.31) % ID/g; Distribution of radioactivity, Blood (60 min after administration): 1.15 (0.44) % ID/g; Distribution of radioactivity, Brain (2 min after administration): 2.52 (0.20) % ID/g; Distribution of radioactivity, Brain (10 min after administration): 1.28 (0.17) % ID/g; Distribution of radioactivity, Brain (30 min after administration): 0.40 (0.11) % ID/g; Distribution of radioactivity, Brain (60 min after administration): 0.35 (0.05) % ID/g; Distribution of radioactivity, Heart (2 min after administration): 5.58 (0.99) % ID/g; Distribution of radioactivity, Heart (10 min after administration): 2.88 (1.02) % ID/g; Distribution of radioactivity, Heart (30 min after administration): 1.44 (0.34) % ID/g; Distribution of radioactivity, Heart (60 min after administration): 1.38 (0.34) % ID/g; Distribution of radioactivity, Intestine (2 min after administration): 2.50 (0.31) % ID/g; Distribution of radioactivity, Intestine (10 min after administration): 10.52 (1.82) % ID/g; Distribution of radioactivity, Intestine (30 min after administration): 20.60 (6.13) % ID/g; Distribution of radioactivity, Intestine (60 min after administration): 29.31 (3.26) % ID/g; Distribution of radioactivity, Kidney (2 min after administration): 11.99 (3.60) % ID/g; Distribution of radioactivity, Kidney (10 min after administration): 9.16 (2.76) % ID/g; Distribution of radioactivity, Kidney (30 min after administration): 5.00 (2.27) % ID/g; Distribution of radioactivity, Kidney (60 min after administration): 4.31 (0.81) % ID/g; Distribution of radioactivity, Liver (2 min after administration): 15.71 (1.27) % ID/g; Distribution of radioactivity, Liver (10 min after administration): 18.55 (2.68) % ID/g; Distribution of radioactivity, Liver (30 min after administration): 7.67 (1.68) % ID/g; Distribution of radioactivity, Liver (60 min after administration): 4.05 (0.61) % ID/g; Distribution of radioactivity, Spleen (2 min after administration): 2.57 (0.42) % ID/g; Distribution of radioactivity, Spleen (10 min after administration): 1.80 (0.30) % ID/g; Distribution of radioactivity, Spleen (30 min after administration): 1.03 (0.04) % ID/g; Distribution of radioactivity, Spleen (60 min after administration): 0.88 (0.15) % ID/g

Question: What does the source list for `Nc1ccc(C=Cc2cc(=O)c3cc([125I])ccc3o2)cc1` [[125I]Compound 46]?
Answer: Distribution of radioactivity, Blood (2 min after administration): 2.34 (0.16) % ID/g; Distribution of radioactivity, Blood (10 min after administration): 2.44 (0.19) % ID/g; Distribution of radioactivity, Blood (30 min after administration): 2.56 (0.64) % ID/g; Distribution of radioactivity, Blood (60 min after administration): 2.27 (0.47) % ID/g; Distribution of radioactivity, Brain (2 min after administration): 4.88 (0.47) % ID/g; Distribution of radioactivity, Brain (10 min after administration): 4.40 (0.44) % ID/g; Distribution of radioactivity, Brain (30 min after administration): 2.78 (0.72) % ID/g; Distribution of radioactivity, Brain (60 min after administration): 1.62 (0.40) % ID/g; Distribution of radioactivity, Heart (2 min after administration): 8.40 (0.47) % ID/g; Distribution of radioactivity, Heart (10 min after administration): 3.78 (0.35) % ID/g; Distribution of radioactivity, Heart (30 min after administration): 2.43 (0.70) % ID/g; Distribution of radioactivity, Heart (60 min after administration): 1.64 (0.29) % ID/g; Distribution of radioactivity, Intestine (2 min after administration): 2.84 (0.18) % ID/g; Distribution of radioactivity, Intestine (10 min after administration): 5.51 (0.55) % ID/g; Distribution of radioactivity, Intestine (30 min after administration): 11.71 (1.27) % ID/g; Distribution of radioactivity, Intestine (60 min after administration): 16.08 (2.44) % ID/g; Distribution of radioactivity, Kidney (2 min after administration): 11.94 (1.49) % ID/g; Distribution of radioactivity, Kidney (10 min after administration): 6.99 (0.91) % ID/g; Distribution of radioactivity, Kidney (30 min after administration): 4.91 (1.07) % ID/g; Distribution of radioactivity, Kidney (60 min after administration): 3.76 (0.91) % ID/g; Distribution of radioactivity, Liver (2 min after administration): 13.23 (1.65) % ID/g; Distribution of radioactivity, Liver (10 min after administration): 14.49 (1.10) % ID/g; Distribution of radioactivity, Liver (30 min after administration): 10.27 (1.84) % ID/g; Distribution of radioactivity, Liver (60 min after administration): 8.16 (1.33) % ID/g; Distribution of radioactivity, Spleen (2 min after administration): 4.23 (0.62) % ID/g; Distribution of radioactivity, Spleen (10 min after administration): 3.64 (0.38) % ID/g; Distribution of radioactivity, Spleen (30 min after administration): 2.92 (0.73) % ID/g; Distribution of radioactivity, Spleen (60 min after administration): 2.16 (0.85) % ID/g

Question: With `CNc1ccc(C=Cc2cc(=O)c3cc([125I])ccc3o2)cc1` [[125I]Compound 47] as the compound, how does the “Distribution of radioactivity, Blood” value (2 min after administration) read?
Answer: 3.21 (0.38) % ID/g

Question: And the “Distribution of radioactivity, Blood” value (10 min after administration)?
Answer: 2.44 (0.082) % ID/g

Question: And the “Distribution of radioactivity, Blood” value (30 min after administration)?
Answer: 2.19 (0.29) % ID/g

Question: And the “Distribution of radioactivity, Blood” value (60 min after administration)?
Answer: 1.79 (0.23) % ID/g

Question: What about the “Distribution of radioactivity, Brain” value (2 min after administration) of the same compound?
Answer: 2.84 (0.35) % ID/g

Question: And the “Distribution of radioactivity, Brain” value (10 min after administration)?
Answer: 2.96 (0.25) % ID/g

Question: What about the “Distribution of radioactivity, Brain” value (30 min after administration) of the same compound?
Answer: 1.86 (0.30) % ID/g

Question: And the “Distribution of radioactivity, Brain” value (60 min after administration)?
Answer: 0.99 (0.09) % ID/g

Question: What about the “Distribution of radioactivity, Heart” value (2 min after administration) of the same compound?
Answer: 6.92 (1.41) % ID/g

Question: And the “Distribution of radioactivity, Heart” value (10 min after administration)?
Answer: 3.31 (0.69) % ID/g

Question: And the “Distribution of radioactivity, Heart” value (30 min after administration)?
Answer: 2.09 (0.39) % ID/g

Question: What about the “Distribution of radioactivity, Heart” value (60 min after administration) of the same compound?
Answer: 1.47 (0.27) % ID/g

Question: And the “Distribution of radioactivity, Intestine” value (2 min after administration)?
Answer: 2.59 (0.38) % ID/g

Question: And the “Distribution of radioactivity, Intestine” value (10 min after administration)?
Answer: 8.55 (1.21) % ID/g

Question: And the “Distribution of radioactivity, Intestine” value (30 min after administration)?
Answer: 16.72 (2.58) % ID/g

Question: What about the “Distribution of radioactivity, Intestine” value (60 min after administration) of the same compound?
Answer: 19.16 (2.63) % ID/g

Question: And the “Distribution of radioactivity, Kidney” value (2 min after administration)?
Answer: 10.41 (1.33) % ID/g

Question: And the “Distribution of radioactivity, Kidney” value (10 min after administration)?
Answer: 7.05 (0.56) % ID/g

Question: And the “Distribution of radioactivity, Kidney” value (30 min after administration)?
Answer: 5.48 (0.97) % ID/g

Question: What about the “Distribution of radioactivity, Kidney” value (60 min after administration) of the same compound?
Answer: 3.52 (1.36) % ID/g

Question: What about the “Distribution of radioactivity, Liver” value (2 min after administration) of the same compound?
Answer: 14.55 (2.64) % ID/g

Question: What about the “Distribution of radioactivity, Liver” value (10 min after administration) of the same compound?
Answer: 14.41 (2.52) % ID/g

Question: And the “Distribution of radioactivity, Liver” value (30 min after administration)?
Answer: 11.13 (1.63) % ID/g

Question: What about the “Distribution of radioactivity, Liver” value (60 min after administration) of the same compound?
Answer: 7.82 (0.94) % ID/g

Question: And the “Distribution of radioactivity, Spleen” value (2 min after administration)?
Answer: 3.88 (0.74) % ID/g

Question: What about the “Distribution of radioactivity, Spleen” value (10 min after administration) of the same compound?
Answer: 4.42 (1.05) % ID/g

Question: And the “Distribution of radioactivity, Spleen” value (30 min after administration)?
Answer: 2.66 (0.47) % ID/g

Question: What about the “Distribution of radioactivity, Spleen” value (60 min after administration) of the same compound?
Answer: 1.51 (0.19) % ID/g

Question: Which “Distribution of radioactivity, Blood” value (2 min after administration) does the source give for `CN(C)c1ccc(C=Cc2cc(=O)c3cc([125I])ccc3o2)cc1` [[125I]Compound 48] here?
Answer: 14.54 (3.37) % ID/g

Question: What about the “Distribution of radioactivity, Blood” value (10 min after administration) of the same compound?
Answer: 3.50 (1.13) % ID/g

Question: What about the “Distribution of radioactivity, Blood” value (30 min after administration) of the same compound?
Answer: 1.5 (0.22) % ID/g

Question: And the “Distribution of radioactivity, Blood” value (60 min after administration)?
Answer: 0.80 (0.21) % ID/g

Question: What about the “Distribution of radioactivity, Brain” value (2 min after administration) of the same compound?
Answer: 0.70 (0.10) % ID/g

Question: What about the “Distribution of radioactivity, Brain” value (10 min after administration) of the same compound?
Answer: 0.72 (0.14) % ID/g

Question: And the “Distribution of radioactivity, Brain” value (30 min after administration)?
Answer: 1.02 (0.23) % ID/g

Question: What about the “Distribution of radioactivity, Brain” value (60 min after administration) of the same compound?
Answer: 0.77 (0.25) % ID/g

Question: And the “Distribution of radioactivity, Heart” value (2 min after administration)?
Answer: 8.89 (1.94) % ID/g

Question: And the “Distribution of radioactivity, Heart” value (10 min after administration)?
Answer: 4.00 (0.93) % ID/g

Question: What about the “Distribution of radioactivity, Heart” value (30 min after administration) of the same compound?
Answer: 2.36 (0.51) % ID/g

Question: What about the “Distribution of radioactivity, Heart” value (60 min after administration) of the same compound?
Answer: 1.42 (0.38) % ID/g

Question: And the “Distribution of radioactivity, Intestine” value (2 min after administration)?
Answer: 1.52 (0.09) % ID/g

Question: And the “Distribution of radioactivity, Intestine” value (10 min after administration)?
Answer: 4.8 (0.74) % ID/g

Question: What about the “Distribution of radioactivity, Intestine” value (30 min after administration) of the same compound?
Answer: 11.98 (1.26) % ID/g

Question: And the “Distribution of radioactivity, Intestine” value (60 min after administration)?
Answer: 14.91 (4.18) % ID/g

Question: And the “Distribution of radioactivity, Kidney” value (2 min after administration)?
Answer: 9.04 (1.72) % ID/g

Question: What about the “Distribution of radioactivity, Kidney” value (10 min after administration) of the same compound?
Answer: 5.58 (1.07) % ID/g

Question: And the “Distribution of radioactivity, Kidney” value (30 min after administration)?
Answer: 5.16 (1.06) % ID/g

Question: And the “Distribution of radioactivity, Kidney” value (60 min after administration)?
Answer: 3.94 (1.25) % ID/g

Question: And the “Distribution of radioactivity, Liver” value (2 min after administration)?
Answer: 20.56 (3.98) % ID/g

Question: And the “Distribution of radioactivity, Liver” value (10 min after administration)?
Answer: 15.09 (2.63) % ID/g

Question: And the “Distribution of radioactivity, Liver” value (30 min after administration)?
Answer: 12.82 (1.96) % ID/g

Question: What about the “Distribution of radioactivity, Liver” value (60 min after administration) of the same compound?
Answer: 8.79 (1.80) % ID/g

Question: And the “Distribution of radioactivity, Spleen” value (2 min after administration)?
Answer: 5.09 (0.75) % ID/g

Question: And the “Distribution of radioactivity, Spleen” value (10 min after administration)?
Answer: 4.06 (0.66) % ID/g

Question: And the “Distribution of radioactivity, Spleen” value (30 min after administration)?
Answer: 3.15 (0.70) % ID/g

Question: What about the “Distribution of radioactivity, Spleen” value (60 min after administration) of the same compound?
Answer: 2.82 (0.36) % ID/g
